Reference: patent US20240418723A1, “SEQUENTIAL TREATMENTS AND BIOMARKERS TO REVERSE RESISTANCE TO KINASE INHIBITORS” (Queen Mary University of London, priority 2021, published 2024)

What was measured:
P31/Fuj AML cells = test: Sequential treatment of P31/Fuj cells (ATRA or LSD1 inhibitor 5 days, then MEKi 3 days; also co-treatment and reverse treatment): cell viability, cell number, apoptosis, CDI; type: cell-based; settings: for drug interaction with MEKi in sequential treatment (CDI): alternative LSD1 inhibitor 5 days then trametinib 3 days, P31/Fuj cells (FIGS. 10 D, E)
Experimental: The Bliss independence model was used to derive coefficients of drug interaction (CDI) values, where CDI <1 indicates significant priming by the […] (synergistic effect).
For the proliferation/viability assays, cells were seeded in T75 flasks (0.5×10^6 cells/mL of RPMI/FBS medium) and exposed for 5 days to either vehicle or epigenetic modifier. Unless otherwise specified, the final concentration for GSK2879552 (LSD1i), […] (EZH2i), pinometostat (DOT1Li) and ATRA was 1 μM while for decitabine (DNMTAi) and vorinostat (HDACi) was 100 nM; all epigenetic inhibitors were diluted in DMSO, while ATRA was diluted in Et-OH. Vehicle concentration was kept at 0.1%. […] The final concentration of DMSO was kept at 0.1%. Finally, cells were transferred to 96-well plates (100 μL per well in 3 technical replicates per condition) and cell viability and proliferation were assessed using Guava and ApoTox-Glo Triplex analyses, as indicated below.
For Guava analysis, cells were stained with Guava ViaCount reagent (Luminex #4000-0040) in 96-well plates, by mixing 150 μL of cell suspension with 75 μL of reagent, and left to incubate for a minimum of 10 minutes in the dark, after which they were processed through a Guava easyCyte flow cytometer (Luminex #0500-5005). Flow cytometry data were analysed using CytoSoft (v2.5.7). Viability and cell number values were expressed relative to vehicle control.
For ApoTox-Glo analysis, cell suspensions were transferred to opaque 96-well plates (100 μL per well) and viability and apoptosis measured using ApoTox-Glo Triplex Assay (Promega #G6320). 20 μL of Viability/Cytotoxicity reagent (containing GF-AFC and bis-AAF-R110 substrates) were added to each well, then incubated at 37° C. for 1 hour. Live cell and cytotoxicity outputs were measured on FLUOstar Omega microplate reader (BMG Labtech). To obtain the live cell output, fluorescence was measured at 355EX/520EM (wavelengths in nm); for the cytotoxicity output, fluorescence was measured at 485EX/520EM. Following this, 100 μL of Caspase-Glo 3/7 reagent were added to each well and incubated at 25° C. for 1 hour. Luminescence was then measured on FLUOstar Omega microplate reader (BMG Labtech). The fluorescence and luminescence signals thus obtained were corrected to the respective background controls (culture medium with no cells). Relative cell number values were obtained by normalising live cell outputs to vehicle control. Apoptosis values were obtained by dividing luminescence outputs to the respective live cell outputs, then normalising to vehicle control.
The extent of drug interaction was calculated in Microsoft Excel 2016 using the CDI formula AB/(A*B), where AB is the normalized reduction in cell viability of the sequential treatment, and A and B are the effects of single treatments. Statistical significance of CDI values for each AML sample was determined using a one sample t-test (base R package) with the null hypothesis being that the mean Log2(CDI) equals 0.

P31/Fuj cells = test: Phosphoproteomics (LC-MS/MS) and kinase network analysis of treated P31/Fuj cells
Experimental: To study ATRA effect over the phosphoproteome, P31/Fuj cells (10×10^6 cells at 0.5×10^6 cell/mL) were seeded in T75 flask and treated with either Et-OH, 1 μM ATRA or 10 μM ATRA for 5 days. […] For both experiments, cells were collected by centrifugation (1500 rpm for 5 min at 5° C.), then cell pellets were washed twice with ice cold PBS supplemented with phosphatase inhibitors (1 mM Na3VO4, 1 mM NaF) and stored at −80° C. Pellets were processed for phosphoproteomics analysis as indicated below.
In brief, cell pellets were lysed in 300 μL of urea buffer (8 M urea in 20 mM HEPES, pH 8.0, supplemented with 1 mM Na3VO4, 1 mM NaF, 1 mM Na4P2O7 and 1 mM P-glycerophosphate). Lysates were further homogenized by sonication (30 cycles of 30 s on 30 s off; Diagenode Bioruptor® Plus) and insoluble material was removed by centrifugation. Protein was quantified using BCA (Thermo Fisher Scientific). Then, 500 μg of protein were subjected to cysteine alkylation using sequential incubation with 10 mM dithiothreitol (DDT) and 16.6 mM iodoacetamide (IAM) for 1 h and 30 min, respectively, at 25° C. with agitation. Trypsin beads (50% slurry of TLCK-trypsin; Thermo Fisher Scientific; Cat. #20230) were equilibrated with 3 washes with 20 mM HEPES (pH 8.0), the urea concentration in the protein suspensions was reduced to 2 M by the addition of 20 mM HEPES (pH 8.0), 100 μL of equilibrated trypsin beads were added and the samples were incubated overnight at 37° C. Trypsin beads were removed by centrifugation (2000×g at 5° C. for 5 min) and the resulting peptide solutions were desalted through Oasis HLB cartridges (Waters) following the manufacturer's indications. Briefly, cartridges were set in a vacuum manifold device and the pressure was adjusted to 5 mmHg. Then, cartridges were conditioned with 1 mL acetonitrile (ACN) and equilibrated with 2.5 mL of wash solution (0.1% trifluoroacetic acid (TFA), 2% ACN). Peptides were loaded in the cartridges and washed with 1 mL of wash solution. Finally, peptides were eluted with 500 μL of glycolic acid buffer 1 (1 M glycolic acid, 5% TFA, 50% ACN). Enrichment of phosphorylated peptides was performed with TiO2 Beads (GL Sciences). The eluents were normalized to 1 mL with glycolic acid buffer 2 (1 M glycolic acid, 5% TFA, 80% ACN) and incubated with 50 μl of TiO2 buffer (50% slurry in 1% TFA) for 5 min at room temperature. TiO2 beads were packed by centrifugation into empty spin columns (Glygen Corporation; Cat. TT2EMT) previously washed with ACN. TiO2 beads were sequentially washed by centrifugation (1500×g for 3 min) with 100 μL of glycolic acid buffer 2, ammonium acetate solution (100 mM ammonium acetate in 25% ACN) and twice with neutral solution (10% ACN). For phosphopeptide elution, spin tips were transferred to fresh tubes, 50 μL of elution solution (5% NH4OH, 7.5% ACN) were added and tips were centrifuged at 1500×g for 3 min. The elution step was repeated a total of 4 times. Finally, samples were snap frozen, dried in a SpeedVac and phosphopeptide pellets were stored at −80° C.

| SMILES | drug interaction with MEKi in sequential treatment (CDI) (P31/Fuj AML cells) | phosphorylation of the MAPK and PI3K pathway markers ERK1 pY204 and c-MYC pT58/pS62 (P31/Fuj cells; ATRA 1 or 10 μM, 5 days, P31/Fuj cells (FIG. 9B)) | phosphorylation of CEBPE and LTB4R (P31/Fuj cells; ATRA 1 or 10 μM, 5 days, dose-dependent manner, P31/Fuj cells (FIG. 9B)) | axes containing CDKL5 and stress kinases such as STK4 (P31/Fuj cells; ATRA 5 days, P31/Fuj cells) | phosphorylation of MAPK1 and PI3K signaling axes (P31/Fuj cells; ATRA 5 days, P31/Fuj cells) | sensitisation to MEKi (trametinib) treatment, cell viability (P31/Fuj AML cells; ATRA pre-treatment for five days, then trametinib, P31/Fuj cells (FIG. 2B)) |
| --- | --- | --- | --- | --- | --- | --- |
| Cl.Cl.NC1CCC(N[C@@H]2C[C@H]2c2ccccc2)CC1 (relative stereo) [ORY-1001, rel-N1-[(1R,2S)-2-phenylcyclopropyl]-1,4-cyclohexanediamine, dihydrochloride] | synergistic interactions with MEKi |  |  |  |  |  |
| CC1=C(/C=C/C(C)=C/C=C/C(C)=C/C(=O)O)C(C)(C)CCC1 [ATRA, all-trans-retinoic acid] |  | decreased | increasing | increasing | decreased | sensitised myeloid P31/Fuj cells to MEKi treatment |
| COc1ccc(-c2c(-c3ccc(C#N)c(F)c3)nc(N3CCC(N)CC3)n(C)c2=O)cc1F [CC-90011] | synergistic interactions with MEKi |  |  |  |  |  |
